Converted amounts (≈) assume the structure as drawn. Where two headings read alike, the source gives them in different places. Values belong to the compound of their own block, whether it stands above or below them.
Experiments:
[1] = Prodrug Solubility (visual inspection in buffer); format: physicochemical; settings: aqueous buffer, thermodynamic from solid
Method: One mg of each compound was diluted with at least 100 μl of the designated buffer, vortexed vigorously for approximately 1 minute, and visually inspected. Sodium citrate (40 mM) was buffered to pH 4 and phosphate-buffered saline was buffered to pH 7. Solutions with no remaining particles were recorded with a solubility ≧to the starting concentration. Compound suspensions were further diluted in 0.1 mL increments followed by vortexing as above, until the prodrug was dissolved. Solubilities of prodrugs ranged from 1.0 mg/ml to >10 mg/ml. The term “ND” means not determined.

[2] = Pharmacokinetics of Prodrugs in Animal Models, all species tested (summary); format: in vivo, mice, rats, or dogs; settings: for PK parameters, normalized to the dose, compared with the respective parameters for Compound 1: all species tested (Table 3a-3d); for conversion of the prodrug form in vivo: all species tested, inferred from PK parameters
Method: Animals were weighed and given the prodrug intravenously (mice, rats, or dogs) or orally (mice). The prodrugs were prepared immediately before dosing in 40 mM sodium citrate buffer, pH 4. Compound 1 was prepared in 20% HPβCD and warmed until dissolved (IV dosing), or in 0.5% methocel as a suspension (PO dosing). At 0, 0.08, 0.25, 0.5, 1, 2, 4, 6, 8, and 24 hours, blood was removed (via cardiac puncture in euthanized mice, via orbital sinus puncture in anesthetized rats, or via cephalic vein in conscious dogs) and 200 µL of the plasma supernatant was immediately frozen (−70° C.).
On the day of analysis, the samples were thawed on ice and 100 μL was diluted with 200 μL of acetonitrile. The samples were vortexed and then centrifuged at 3000×g for 5 minutes to pellet the precipitated plasma proteins. The supernatant was analyzed by HPLC, or by LC-MS-MS. A standard curve was constructed by spiking a known quantity of Compound 1 into plasma and then performing serial dilutions in the range of 0.01 to 10 μg/mL. Pharmacokinetic (PK) parameters were calculated by WinNonlin Pro, version 3.1.
The term “ND” means not determined. The term “NA” means not applicable. The dose of each prodrug was normalized to the Compound 1 dose. The values of the PK parameters for the prodrug form for Compounds 4a and 21a are based on the resulting accumulation and elimination of Compound 1.

S. aureus Smith = assay: Mouse Systemic Lethal Infection Model; format: in vivo; settings: Staphylococcus aureus, female Swiss Webster mice, infected intraperitoneally, three day survival, prodrug ED50 normalized to content of Compound 1
Method: Female Swiss Webster mice weighing between 20-25 g were infected intraperitoneally with approximately 5×10^5 colony forming units (CFU) S. aureus Smith in 7% mucin. One hour later, the animals were given prodrug or Compound 1 intravenously or orally in a dose volume of 0.1 mL/10 g body weight. Each group consisted of eight animals. The prodrugs were prepared immediately before dosing in 40 mM sodium citrate buffer, pH 4. Compound 1 was prepared in 20% HPβCD and warmed until dissolved (IV dosing) or in 0.5% methocel (PO dosing) as a suspension. The mice were observed over a three day period and ED50 values were calculated from the resulting % survival curves (Table 2). The term “ND” means not determined. The prodrug ED50 values were normalized to the content of Compound 1.

[3] = Solubility of Compound 1 in pH 4 buffer (24 h shaking, HPLC); format: physicochemical; settings: aqueous buffer, thermodynamic from solid, ambient temperature
Method: The solubility of the active drug, Compound 1, was determined in a separate experiment in which an excess of the compound was added to pH 4 buffer. The mixture was shaken with a Burrell wrist action shaker at ambient temperature for 24 hours. Excess solute was removed by centrifugation, the supernatant was diluted with a suitable solvent, and the concentration of the compound was measured using HPLC. The solubility of Compound 1 at pH 4 was 0.007 mg/mL.

[4] = phosphate-buffered saline pH 7, read-out: Solubility Saline
[5] = 40 mM sodium citrate buffer, Sodium citrate (40 mM) pH 4, read-out: Solubility Sodium Citrate

Structure (SMILES): CCOP(=O)(O)OCOC(=O)N(C[C@H]1CN(c2ccc(N3Cc4cn(C)nc4C3)c(F)c2)C(=O)O1)C(C)=O [Compound 21a, Acetyl-{(R)-3-[3-fluoro-4-(2-methyl-2,6-dihydro-4H-pyrrolo[3,4-c]pyrazol-5-yl)-phenyl]-2-oxo-oxazolidin-5-ylmethyl}-carbamic acid ethoxy-hydroxy-phosphoryloxymethyl ester]
solubility at 1 min ([1]; Sodium citrate (40 mM) pH 4, read-out: Solubility Sodium Citrate): ≥ 10 mg/mL
solubility at 1 min [1, 4]: ≥ 10 mg/mL
PK parameters, normalized to the dose, compared with the respective parameters for Compound 1 [2]: similar
conversion of the prodrug form in vivo [2]: rapidly converted in vivo to Compound 1

Structure (SMILES): CC(=O)NC[C@H]1CN(c2ccc(N3Cc4cn(C)nc4C3)c(F)c2)C(=O)O1 [Compound 1]
ED50 (S. aureus Smith; dosed intravenously one hour later, read-out: ED50 (95% Fiducial Limits) IV): 3.3 mg/kg
ED50 (S. aureus Smith; dosed orally one hour later, read-out: ED50 (95% Fiducial Limits) PO): 3.5 mg/kg
solubility at 24 h [3]: 0.007 mg/mL (≈ 0.0187 mM)

Structure (SMILES): CNCC(=O)OCOC(=O)N(C[C@H]1CN(c2ccc(N3Cc4cn(C)nc4C3)c(F)c2)C(=O)O1)C(C)=O [Compound 10, Methylamino-acetic acid (acetyl-{(R)-3-[3-fluoro-4-(2-methyl-2,6-dihydro-4H-pyrrolo[3,4-c]pyrazol-5-yl)-phenyl]-2-oxo-oxazolidin-5-ylmethyl}-carbamoyloxy)-methyl ester]
solubility at 1 min [1, 5]: ≥ 10 mg/mL
solubility at 1 min [1, 4]: ≥ 10 mg/mL

Structure (SMILES): CC(=O)N(C[C@H]1CN(c2ccc(N3Cc4cn(C)nc4C3)c(F)c2)C(=O)O1)C(=O)OCOC(=O)COP(=O)(O)O [Compound 24, Phosphonooxy-acetic acid (acetyl-{(R)-3-[3-fluoro-4-(2-methyl-2,6-dihydro-4H-pyrrolo[3,4-c]pyrazol-5-yl)-phenyl]-2-oxo-oxazolidin-5-ylmethyl}-carbamoyloxy)-methyl ester]
solubility at 1 min [1, 5]: ≥ 5 mg/mL

Structure (SMILES): CC(=O)N(C[C@H]1CN(c2ccc(N3Cc4cn(C)nc4C3)c(F)c2)C(=O)O1)C(=O)OCOC(=O)CN1CCOCC1 [Compound 6, Morpholin-4-yl-acetic acid (acetyl-{(R)-3-[3-fluoro-4-(2-methyl-2,6-dihydro-4H-pyrrolo[3,4-c]pyrazol-5-yl)-phenyl]-2-oxo-oxazolidin-5-ylmethyl}-carbamoyloxy)-methyl ester]
solubility at 1 min [1, 5]: 2.5 mg/mL (≈ 4.35 mM)
solubility at 1 min [1, 4]: 1 mg/mL (≈ 1.74 mM)

Structure (SMILES): CC(=O)N(C[C@H]1CN(c2ccc(N3Cc4cn(C)nc4C3)c(F)c2)C(=O)O1)C(=O)OCOC(=O)CN(C)C [Compound 5, Dimethylamino-acetic acid (acetyl-{(R)-3-[3-fluoro-4-(2-methyl-2,6-dihydro-4H-pyrrolo[3,4-c]pyrazol-5-yl)-phenyl]-2-oxo-oxazolidin-5-ylmethyl}-carbamoyloxy)-methyl ester]
solubility at 1 min [1, 5]: ≥ 10 mg/mL
solubility at 1 min [1, 4]: ≥ 10 mg/mL

Structure (SMILES): CC(=O)N(C[C@H]1CN(c2ccc(N3Cc4cn(C)nc4C3)c(F)c2)C(=O)O1)C(=O)OCOC(=O)CN1CCN(C)CC1 [Compound 8, (4-Methyl-piperazin-1-yl)-acetic acid (acetyl-{(R)-3-[3-fluoro-4-(2-methyl-2,6-dihydro-4H-pyrrolo[3,4-c]pyrazol-5-yl)-phenyl]-2-oxo-oxazolidin-5-ylmethyl}-carbamoyloxy)-methyl ester]
solubility at 1 min [1, 5]: ≥ 10 mg/mL
solubility at 1 min [1, 4]: ≥ 10 mg/mL

The next lines start with the values.

solubility at 1 min [1, 5]: ≥ 10 mg/mL
solubility at 1 min [1, 4]: ≥ 10 mg/mL
PK parameters, normalized to the dose, compared with the respective parameters for Compound 1 [2]: similar
conversion of the prodrug form in vivo [2]: rapidly converted in vivo to Compound 1
Structure (SMILES): CC(=O)N(C[C@H]1CN(c2ccc(N3Cc4cn(C)nc4C3)c(F)c2)C(=O)O1)C(=O)OCOC(=O)CN1CCNCC1 [Compound 4a, Piperazin-1-yl-acetic acid (acetyl-{(R)-3-[3-fluoro-4-(2-methyl-2,6-dihydro-4H-pyrrolo[3,4-c]pyrazol-5-yl)-phenyl]-2-oxo-oxazolidin-5-ylmethyl}-carbamoyloxy)-methyl ester]

solubility at 1 min [1, 5]: ≥ 7.5 mg/mL
Structure (SMILES): CC(=O)N(C[C@H]1CN(c2ccc(N3Cc4cn(C)nc4C3)c(F)c2)C(=O)O1)C(=O)OC(C)OC(=O)CN1CCNCC1 (stereo partly drawn) [Compound 4b, Piperazin-1-yl-acetic acid 1-(acetyl-{(R)-3-[3-fluoro-4-(2-methyl-2,6-dihydro-4H-pyrrolo[3,4-c]pyrazol-5-yl)-phenyl]-2-oxo-oxazolidin-5-ylmethyl}-carbamoyloxy)-ethyl ester]

solubility at 1 min [1, 5]: ≥ 2 mg/mL
solubility at 1 min [1, 4]: ≥ 2 mg/mL
Structure (SMILES): CC(=O)N(C[C@H]1CN(c2ccc(N3Cc4cn(C)nc4C3)c(F)c2)C(=O)O1)C(=O)OCOP(=O)(O)O [Compound 18a, Acetyl-{(R)-3-[3-fluoro-4-(2-methyl-2,6-dihydro-4H-pyrrolo[3,4-c]pyrazol-5-yl)-phenyl]-2-oxo-oxazolidin-5-ylmethyl}-carbamic acid phosphonooxymethyl ester]

Source: patent US7776855B2, “Antimicrobial oxazolidinone prodrugs” (Janssen Pharmaceutica N.V., priority 2006, dated 2010)
